Experimental data: ChEMBL document CHEMBL3877281, “Extending the structure-activity relationship study of marine natural ningalin B analogues as P-glycoprotein inhibitors” (Eur J Med Chem, 2017)

Tests used:
Homo sapiens [1] = organism: Homo sapiens; experiment: Inhibition of P-gp in human MDA435/LCC6MDR cells assessed as potentiation of paclitaxel-induced cytotoxicity at 1 uM measured after 5 days by Cell Titer 96 Aqueous assay relative to paclitaxel alone; assay type: cell-based
[2] = Cytotoxicity against mouse L929 cells measured after 3 days by MTS assay; assay type: toxicity
[3] = Inhibition of P-gp in human MDA435/LCC6MDR cells assessed as reduction of paclitaxel cytotoxic IC50 by half measured after 5 days by Cell Titer 96 Aqueous assay; assay type: cell-based; details: 120 h
[4] = Inhibition of P-gp in human MDA435/LCC6MDR cells assessed as reduction of doxorubicin cytotoxic IC50 by half after 5 days by Cell Titer 96 Aqueous assay; assay type: cell-based; details: 120 h
[5] = Inhibition of P-gp in human MDA435/LCC6MDR cells assessed as reduction of vinblastine cytotoxic IC50 by half measured after 5 days by Cell Titer 96 Aqueous assay; assay type: cell-based; details: 120 h
[6] = Inhibition of P-gp in human MDA435/LCC6MDR cells assessed as reduction of vincristine cytotoxic IC50 by half measured after 5 days by Cell Titer 96 Aqueous assay; assay type: cell-based; details: 120 h
P-gp [7] = experiment: Selectivity index, ratio of IC50 for cytotoxicity against mouse L929 cells to EC50 for inhibition of P-gp in human MDA435/LCC6MDR cells assessed as reduction of paclitaxel cytotoxic IC50 by half; assay type: toxicity, cell-based; details: probe paclitaxel, read-out: Ratio IC50/EC50
P-gp [8] = experiment: Selectivity index, ratio of IC50 for cytotoxicity against mouse L929 cells to EC50 for inhibition of P-gp in human MDA435/LCC6MDR cells assessed as reduction of doxorubicin cytotoxic IC50 by half; assay type: toxicity, cell-based; details: probe doxorubicin, read-out: Ratio IC50/EC50
P-gp [9] = experiment: Selectivity index, ratio of IC50 for cytotoxicity against mouse L929 cells to EC50 for inhibition of P-gp in human MDA435/LCC6MDR cells assessed as reduction of vinblastine cytotoxic IC50 by half; assay type: toxicity, cell-based; details: probe vinblastine, read-out: Ratio IC50/EC50
P-gp [10] = experiment: Selectivity index, ratio of IC50 for cytotoxicity against mouse L929 cells to EC50 for inhibition of P-gp in human MDA435/LCC6MDR cells assessed as reduction of vincristine cytotoxic IC50 by half; assay type: toxicity, cell-based; details: probe vincristine, read-out: Ratio IC50/EC50
Homo sapiens [11] = organism: Homo sapiens; experiment: Potency index, ratio of EC50 for verapamil to EC50 for test compound for inhibition of P-gp in human MDA435/LCC6MDR cells assessed as reduction of paclitaxel cytotoxic IC50 by half; assay type: cell-based
Homo sapiens [12] = organism: Homo sapiens; experiment: Potency index, ratio of EC50 for verapamil to EC50 for test compound for inhibition of P-gp in human MDA435/LCC6MDR cells assessed as reduction of doxorubicin cytotoxic IC50 by half; assay type: cell-based
Homo sapiens [13] = organism: Homo sapiens; experiment: Potency index, ratio of EC50 for verapamil to EC50 for test compound for inhibition of P-gp in human MDA435/LCC6MDR cells assessed as reduction of vinblastine cytotoxic IC50 by half; assay type: cell-based
Homo sapiens [14] = organism: Homo sapiens; experiment: Potency index, ratio of EC50 for verapamil to EC50 for test compound for inhibition of P-gp in human MDA435/LCC6MDR cells assessed as reduction of vincristine cytotoxic IC50 by half; assay type: cell-based
Homo sapiens [15] = organism: Homo sapiens; experiment: Inhibition of P-gp in human MDA435/LCC6MDR cells assessed as increase in doxorubicin accumulation at 2 uM measured after 150 mins by fluorescence spectrophotometric method relative to control; assay type: cell-based
Homo sapiens [16] = organism: Homo sapiens; experiment: Inhibition of P-gp in human MDA435/LCC6MDR cells assessed as increase in rhodamine-123 accumulation at 2 uM measured after 150 mins by fluorescence spectrophotometric method relative to control; assay type: cell-based
Homo sapiens [17] = organism: Homo sapiens; experiment: Potency index, ratio of compound effect to verapamil effect for inhibition of P-gp in human MDA435/LCC6MDR cells assessed as increase in rhodamine-123 accumulation; assay type: cell-based
[18] = Inhibition of P-gp in human MDA435/LCC6MDR cells assessed as increase in doxorubicin accumulation to half of parental LCC6 cells measured after 150 mins by fluorescence spectrophotometric method; assay type: cell-based; details: MDA-435/LCC6, 2.5 h

Row | Structure (SMILES) | fold change (FC) (Homo sapiens [1]) | also measured
1 | COc1ccc(C2=C(c3ccc(OC)c(OCc4ccccc4)c3)C(=O)N(Cc3cc(OC)c(OC)c(OC)c3)C2=O)cc1OC | 11.9 | –
2 | COc1ccc(C2=C(c3ccc(C)cc3)C(=O)N(Cc3ccc(S(C)(=O)=O)cc3)C2=O)cc1OC | 3 | –
3 | COc1ccc(C2=CC(=O)N(CC(=O)c3ccc(OCc4ccccc4)c(OC)c3)C2=O)cc1OC | 1.4 | –
4 | COc1ccc(C2=C(SC)C(=O)N(CC(=O)c3ccc(OCc4ccccc4)c(OC)c3)C2=O)cc1OC | 1.4 | –
5 | COc1ccc(C2=C(c3ccc(OC)c(OC)c3)C(=O)N(CC(=O)c3ccc(OCc4ccccc4)c(OC)c3)C2=O)cc1 | 22.1 | –
6 | COc1ccc(C2=C(c3ccc(OCc4ccccc4)c(OC)c3)C(=O)N(CC(=O)c3ccc(OCc4ccccc4)c(OC)c3)C2=O)cc1OC | 1.4 | –
7 | COc1ccc(C2=C(c3ccc(OC)c(OC)c3)C(=O)N(Cc3ccc(S(C)(=O)=O)cc3)C2=O)cc1OC | 3.4 | –
8 | COc1cc(C(=O)CN2C(=O)c3ccccc3C2=O)ccc1OCc1ccccc1 | 1.1 | –
9 | COc1cccc(C2=C(c3ccc(OC)c(OC)c3)C(=O)N(Cc3cc(OC)c(OC)c(OC)c3)C2=O)c1 | 11.4 | –
10 | COc1ccc(C(=O)CN2C(=O)c3ccccc3C2=O)cc1 | 1.3 | –
11 | COc1ccc(C2=C(c3ccc(OC)c(OC)c3)C(=O)N(CC(=O)c3ccc(OCc4cc(OC)c(OC)c(OC)c4Br)c(OC)c3)C2=O)cc1OC | 48 | IC50 at 3 days [2]: > 100000 nM; EC50 [3]: 165 nM; EC50 [4]: 120 nM; EC50 [5]: 137 nM; EC50 [6]: 132 nM; selectivity ratio (P-gp [7]): > 606; selectivity ratio (P-gp [8]): > 833; selectivity ratio (P-gp [9]): > 730; selectivity ratio (P-gp [10]): > 758; Ratio EC50 (Homo sapiens [11]): 2 to 3.7; Ratio EC50 (Homo sapiens [12]): 2 to 3.7; Ratio EC50 (Homo sapiens [13]): 2 to 3.7; Ratio EC50 (Homo sapiens [14]): 2 to 3.7; fold change (FC) (Homo sapiens [15]): 2.4; fold change (FC) (Homo sapiens [16]): 4.8; Ratio (Homo sapiens [17]): 1.7; EC50 [18]: 78 nM
12 | COc1cccc(C2=C(c3ccc(OC)c(OC)c3)C(=O)N(CC(=O)c3ccc(OCc4ccccc4)c(OC)c3)C2=O)c1 | 8.8 | –
13 | COc1ccc(C2=C(c3ccc(OC)c(OC)c3)C(=O)N(Cc3ccc(OCc4ccccc4)cc3)C2=O)cc1OC | 4.2 | –
14 | COc1ccc(C(=O)CN2C(=O)C(c3ccc(OC)cc3)=C(c3ccc(OC)c(OC)c3)C2=O)cc1 | 2.7 | –
15 | COc1ccc(C(=O)CN2C(=O)C(c3ccc(OC)c(OC)c3)=C(c3ccc(OC)c(OC)c3)C2=O)cc1 | 7.6 | –
16 | COc1ccc(C2=C(c3ccc(OC)c(OC)c3)C(=O)N(Cc3ccc(OCc4ccccc4)c(OC)c3)C2=O)cc1OC | 9.3 | –
17 | COc1ccc(C2=C(c3ccc(OC)c(OC)c3)C(=O)N(CC(=O)c3ccc(S(C)(=O)=O)cc3)C2=O)cc1OC | 1.4 | –
18 | COc1ccc(C(=O)CN2C(=O)C(c3cccc(OC)c3)=C(c3ccc(OC)c(OC)c3)C2=O)cc1 | 3.5 | –
19 | COc1ccc(C2=C(c3ccc(C)cc3)C(=O)N(CC(=O)c3ccc(S(C)(=O)=O)cc3)C2=O)cc1OC | 2 | –
20 | COc1ccc(C2=C(c3ccc(C)cc3)C(=O)N(CC(=O)c3ccc(OCc4ccccc4)c(OC)c3)C2=O)cc1OC | 8.6 | –
21 | COc1ccc(C2=C(c3ccc(OC)c(OC)c3)C(=O)N(CC(=O)c3ccc(OCc4ccccc4)c(OC)c3)C2=O)cc1OC | 39.8 | –
22 | COc1ccc(C2=C(c3ccc(OC)c(OC)c3)C(=O)N(Cc3cc(OC)c(OC)c(OC)c3)C2=O)cc1OC | 13.8 | –
23 | COc1cc(CN2C(=O)c3ccccc3C2=O)cc(OC)c1OC | 1.2 | –
24 | COc1ccc(CCN(C)CCCC(C#N)(c2ccc(OC)c(OC)c2)C(C)C)cc1OC (stereo unspecified) [VERAPAMIL] | – | IC50 at 3 days [2]: 89000 nM
25 | COc1ccc(C2=C(c3ccc(OC)c(OC)c3)C(=O)N(Cc3cc(OC)c(OC)c(OC)c3)C2=O)cc1 | 5.1 | –
26 | COc1ccc(C(=O)CN2C(=O)C(c3ccccc3)=C(c3ccc(OC)c(OC)c3)C2=O)cc1 | 2.6 | –
27 | COc1ccc(C(=O)CN2C(=O)C(c3ccc(OC)c(OC)c3)=C(c3ccc(OCc4ccccc4)c(OC)c3)C2=O)cc1 | 4.5 | –
28 | COc1ccc(C2=C(c3ccccc3)C(=O)N(CC(=O)c3ccc(OCc4ccccc4)c(OC)c3)C2=O)cc1OC | 5.9 | –
29 | COc1ccc(C2=C(c3ccccc3)C(=O)N(Cc3cc(OC)c(OC)c(OC)c3)C2=O)cc1OC | 7.1 | –
